# Assay results as given in patent US8394401B2, “Antiobesity or antihyperlipidemic food, feeding stuff or supplement containing lysine” (Ajinomoto Co., Inc., priority 2004, dated 2013).
# Tests used:
# Assay type in all cases: in vivo, C57BL/6J male mice
# [1] = Experimental Example 3: mice fed high fat feed supplemented with lysine hydrochloride, triglyceride concentration in blood plasma
# From the text: The following diets were respectively provided for 8 weeks to 4 groups of 9-week-old C57BL/6J male mice, consisting of 10 individuals per group (n=10): (1) 20% protein energy diet (LF; dietary energy composition ratio was protein:fat:carbohydrate=2:7:1), (2) high fat feed (HF; protein:fat:carbohydrate=17:46:37), (3) high fat food supplemented with 1% lysine hydrochloride (HF1K; containing 1% lysine hydrochloride (0.8% lysine base)), and (4) high fat feed supplemented with 3% lysine hydrochloride (HF3K; containing 3% lysine hydrochloride (2.4% lysine base)).
# After 8 weeks of the experimental period, the triglyceride concentration in the blood plasma was measured. Statistical analysis was performed using Dunnett's test employing the HF group as the control.
# [2] = Experimental Example 2: mice fed 10/20/40/60% protein energy diets with or without 3% lysine hydrochloride for 4 weeks; details: after 4 weeks, vs respective diet without lysine supplementation
# From the text: The following feeding stuffs were respectively provided for 4 weeks to 8 groups of 9-week-old C57BL/6J male mice, consisting of 10 individuals per group (n=10): (1) 10% protein energy diet (LP; dietary energy composition ratio was protein:fat:carbohydrate=1:1:8), (2) 10% protein energy diet supplemented with lysine hydrochloride (LPK), (3) 20% protein energy diet (LF; protein:fat:carbohydrate=2:1:7), (4) 20% protein energy diet supplemented with lysine hydrochloride (LFK), (5) 40% protein energy diet (MP; protein:fat:carbohydrate =4:1:5), (6) 40% protein energy diet supplemented with lysine hydrochloride (MPK), (7) 60% protein energy diet (HP; protein:fat:carbohydrate=6:1:3), and (8) 60% protein energy diet supplemented with lysine hydrochloride (HPK). The diets, when supplemented with lysine hydrochloride, were added with 3% lysine hydrochloride.
# After 4 weeks the experimental period, the body weight, the total fat weight(sum of epididymal fat, perirenal fat, mesenteric fat, and subcutaneous fat in the periphery of the femoral region), and the kidney weight were measured. Statistical analysis was performed using Dunnett's test, employing the respective groups fed with the diets without lysine supplementation as the controls.
# [3] = Experimental Example 1: high fat diet-induced obese mice fed a 20% protein energy diet supplemented with lysine hydrochloride for 8 weeks
# From the text: A high fat diet (dietary energy composition ratio was protein:fat:carbohydrate=17:46:37) was provided for 16 weeks to 30 5-week-old C57BL/6J male mice. At the 16th week, the 30 mice were divided into 3 groups, each consisting of 10 individuals (n=10), and from then, the following diets were provided for 8 weeks to the 3 groups, respectively, (1) 20% protein energy diet (LF; protein:fat:carbohydrate=2:7:1), (2) 20% protein energy diet supplemented with 1% lysine hydrochloride (LF1K; containing 1% lysine hydrochloride (0.8% lysine base)), and (3) 20% protein energy diet supplemented with 3% lysine hydrochloride (LF3K; containing 3% lysine hydrochloride (2.4% lysine base)). Herein, the term “lysine base” refers to free-form lysine. Further, as a nonobese group, a group (LL) was prepared consisting of 10 mice of the same species that were fed with 20% protein energy diet (protein:fat:carbohydrate=2:7:1) from the start of the experiment until the end, i.e., for 24 weeks.
# The food intakes were measured and the energy intakes were determined from the energy per g of each test diet. After 8 weeks of the experimental period, the body weight and the total fat weight (sum of epididymal fat, perirenal fat, mesenteric fat, and subcutaneous fat in the periphery of the femoral region) were measured. Statistical analysis was performed using Dunnett's test employing the LF group as the control.
# [4] = after 8 weeks, 1% or 3% lysine hydrochloride in 20% protein energy diet, vs LF group, Dunnett's test p<0.05, dose-dependent
# [5] = mice, feeding stuff having 20% protein energy, lysine component(s) 0.8 to 3.0 wt % on the dry matter basis
structure (smiles),measurement,setting,value
"Cl.NCCCC[C@H](N)C(=O)O [lysine hydrochloride, L-Lysine hydrochloride]",increase in the triglyceride concentration in the blood plasma due to intake of the high fat diet,"[1]; after 8 weeks, 1% or 3% lysine hydrochloride in high fat feed, vs HF group, Dunnett's test p<0.05",significantly inhibited
same,improvement effect for hyperlipidemia,"[1]; mice, lysine component(s) 0.8 to 3.0 wt % on the dry matter basis",improvement effect for hyperlipidemia was exhibited
same,total fat weight,[2],decrease
same,body weight,[2]; Dunnett's test p<0.05,decrease
same,body weight upon the autopsy,[3]; [4],significant decrease
same,"total fat weight (sum of epididymal, perirenal, mesenteric and femoral subcutaneous fat)",[3]; [4],significant decrease
same,increase in body fat,[3]; [5],suppressed
same,increase in body weight,[3]; [5],suppressed
